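Grown in 96-well plates, cells were treated for 48 hours with each compound at five concentrations. Insufficient inhibition: endpoint recorded as highest concentration tested. At the GI50, growth is halved. The concentration for full growth arrest is given as TGI.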

Eleven molecules from PubChem BioAssay (NCI) can be followed below.

Among the test systems are OVCAR-3 ovarian; M14 melanoma; OVCAR-5 ovarian; HCT-116 colon; KM12 colon; LOX IMVI melanoma; A549 NSCLC; NCI-H522 lung; UACC-62 melanoma; CCRF-CEM leukemia.
Common to all, as to assay: inhibition of tumour cell growth, NCI panel, 48 h

Turning to `CCCCCN(CCCCC)CCCNc1c2c(nc3ccc(Cl)cc13)CCCC2`, the GI50 is 1.96 µM with OVCAR-3 ovarian; 1.8 µM in the experiment with M14 melanoma; 3.36 µM in the experiment on OVCAR-5 ovarian; 0.88 µM with HCT-116 colon; 3.13 µM with KM12 colon; 2.06 µM in the experiment on LOX IMVI melanoma. For the same molecule, the figures for the GI50 with A549 NSCLC, with NCI-H522 lung and with UACC-62 melanoma were 3.29 µM, 1.74 µM and 4.36 µM, respectively. In addition, the TGI in the experiment with OVCAR-3 ovarian was 4.36 µM; in the experiment on M14 melanoma, 3.41 µM; in the experiment with OVCAR-5 ovarian, 15 µM; with HCT-116 colon, 2.9 µM; in the experiment on KM12 colon, 10.3 µM; with LOX IMVI melanoma, 5.97 µM. Further, the TGI in the experiment with A549 NSCLC was found to be 10.8 µM; in the experiment on NCI-H522 lung it was 3.86 µM; in the experiment on UACC-62 melanoma, 16.8 µM.

For the molecule `CCOC(=O)CN1C(=O)c2cccc3cc([N+](=O)[O-])cc(c23)C1=O`, the TGI with OVCAR-3 ovarian was 14.9 µM; with M14 melanoma it was 11.5 µM; in the experiment with OVCAR-5 ovarian, 28.9 µM; in the experiment with HCT-116 colon, 3 µM; in the experiment with KM12 colon it was 8.73 µM; in the experiment on LOX IMVI melanoma, 2.74 µM. The TGI turned out to be 26.6 µM with A549 NSCLC, 1.5 µM in the experiment with CCRF-CEM leukemia and 5.2 µM with UACC-62 melanoma.

Regarding `Cc1cc(I)cc(CN(C)CCCCN2CCCCC2)c1O`, the GI50 in the experiment with OVCAR-3 ovarian is 20 µM; with M14 melanoma, 3.31 µM; in the experiment with OVCAR-5 ovarian, 14.3 µM; in the experiment on HCT-116 colon, 8.78 µM; in the experiment with KM12 colon it was 13.6 µM; with LOX IMVI melanoma, 11.5 µM. The GI50 is 27.4 µM in the experiment with A549 NSCLC, 17.2 µM in the experiment with NCI-H522 lung and 2.62 µM in the experiment on UACC-62 melanoma. In addition, the TGI came to 53.4 µM in the experiment with OVCAR-3 ovarian; 12.4 µM in the experiment with M14 melanoma; 40.5 µM with OVCAR-5 ovarian; 21.1 µM in the experiment with HCT-116 colon; 31.3 µM with KM12 colon; 24 µM with LOX IMVI melanoma. Further, the TGI in the experiment on A549 NSCLC amounted to 96.8 µM; in the experiment with NCI-H522 lung, 38.2 µM; in the experiment with UACC-62 melanoma, 6.98 µM.

Turning to `Nc1ccccc1SC(C[N+](=O)[O-])c1ccc2c(c1)OCO2` (stereo not given), the TGI with OVCAR-3 ovarian amounted to 12.4 µM; with M14 melanoma, 3.15 µM; with OVCAR-5 ovarian, 9.85 µM; with HCT-116 colon, 3.71 µM; in the experiment with KM12 colon, 6.31 µM; in the experiment on LOX IMVI melanoma, 3.68 µM. Moreover, the TGI worked out at 8.68 µM with A549 NSCLC, 28.3 µM in the experiment on NCI-H522 lung and 25.9 µM in the experiment on UACC-62 melanoma.

On to `CN(C)C(=N)c1ccccc1`, for which the TGI with OVCAR-3 ovarian, in the experiment on M14 melanoma, with OVCAR-5 ovarian, in the experiment with HCT-116 colon, with KM12 colon and in the experiment on LOX IMVI melanoma was more than 100 µM each time. Besides, the TGI in the experiment with A549 NSCLC and in the experiment with NCI-H522 lung was more than 100 µM each time.

With `COc1ccc(C(=O)Cn2c(C(=O)c3ccccc3)nc(-c3ccc(OC)cc3)c2-c2ccc(OC)cc2)cc1`, the GI50 with OVCAR-3 ovarian, in the experiment with M14 melanoma, in the experiment on OVCAR-5 ovarian, in the experiment with HCT-116 colon, in the experiment with KM12 colon and in the experiment on LOX IMVI melanoma was more than 100 µM throughout. Moreover, the values for the GI50 in the experiment on A549 NSCLC, with NCI-H522 lung and in the experiment on UACC-62 melanoma were more than 100 µM, more than 100 µM and 98.3 µM, respectively. Moreover, the TGI in the experiment on OVCAR-3 ovarian, in the experiment on M14 melanoma, with OVCAR-5 ovarian, with HCT-116 colon, in the experiment with KM12 colon and in the experiment with LOX IMVI melanoma was more than 100 µM in each case. The TGI in the experiment on A549 NSCLC, in the experiment on NCI-H522 lung and with UACC-62 melanoma was more than 100 µM in each case.

For the molecule `CC1=C(C(=O)Nc2ccc(Cl)c(Cl)c2)C(c2cccc(Oc3ccccc3)c2)NC(=S)N1` (stereo not given), the GI50 in the experiment with OVCAR-3 ovarian is 1.87 µM; in the experiment with M14 melanoma it was 9.21 µM; in the experiment with OVCAR-5 ovarian it was 9.38 µM; in the experiment with HCT-116 colon, 20.6 µM; in the experiment on KM12 colon it was 5.71 µM; in the experiment on LOX IMVI melanoma, 7.48 µM. In addition, the GI50 was 9.51 µM with A549 NSCLC, 11.7 µM in the experiment with NCI-H522 lung and 7.81 µM in the experiment on UACC-62 melanoma. In addition, the TGI in the experiment with OVCAR-3 ovarian was 8.15 µM; with M14 melanoma, 20.1 µM; with OVCAR-5 ovarian it was 18.7 µM; in the experiment on HCT-116 colon it was more than 50 µM; in the experiment with KM12 colon, 12.6 µM; in the experiment with LOX IMVI melanoma, 14.7 µM. For the same molecule, the TGI in the experiment with A549 NSCLC stood at 23.7 µM; in the experiment on NCI-H522 lung, 21.8 µM; in the experiment on UACC-62 melanoma, 14.6 µM.

As for `COC1(OC)CCC2C1C1CCC(OC)(OC)C21` (stereo not given), the TGI with OVCAR-3 ovarian, in the experiment on M14 melanoma, in the experiment on OVCAR-5 ovarian, in the experiment on HCT-116 colon, in the experiment with KM12 colon and in the experiment on A549 NSCLC was more than 50 µM each time. For the same molecule, the TGI in the experiment on CCRF-CEM leukemia, in the experiment with NCI-H522 lung and in the experiment with UACC-62 melanoma was more than 50 µM in each case.

With `Cc1cc(C)nc(NS(=O)(=O)c2ccc(NC(=O)c3ccc(Cl)c4c(Nc5ccc(S(=O)(=O)Nc6nc(C)cc(C)n6)cc5)c5ccccc5nc34)cc2)n1`, the TGI with OVCAR-3 ovarian was more than 100 µM; in the experiment with M14 melanoma, 6.95 µM; in the experiment on OVCAR-5 ovarian, 32.4 µM; in the experiment on KM12 colon, more than 100 µM; with LOX IMVI melanoma, more than 100 µM; with A549 NSCLC, 86.1 µM. This molecule came in with a TGI in the experiment with CCRF-CEM leukemia of more than 100 µM.

In the case of `CN1C(=O)C(C)(C)C2(SC(C)(C)C2(C)C)N(C)C1=S` (stereo not given), the TGI in the experiment on OVCAR-3 ovarian, in the experiment on M14 melanoma, in the experiment on OVCAR-5 ovarian, with HCT-116 colon, in the experiment on KM12 colon and with A549 NSCLC was more than 100 µM each time. In addition, the TGI in the experiment with CCRF-CEM leukemia, with NCI-H522 lung and in the experiment with UACC-62 melanoma was more than 100 µM each time.

As to `O=C(O)CCc1coc2ccc(O)cc12`, the TGI with OVCAR-3 ovarian, with M14 melanoma, with HCT-116 colon, with LOX IMVI melanoma, in the experiment on A549 NSCLC and in the experiment with CCRF-CEM leukemia was more than 100 µM throughout. Also, the TGI with UACC-62 melanoma was more than 100 µM.
